According to the NIST ThermoML archive (doi:10.1021/je400551d):
“And” between values parts separate entries of the source, which are not always exact repeats. Equal values may be shown once. ± gives the expanded uncertainty stated by the source.

Details: Liquid, Manometric method

OCCO [1,2-ethanediol]
Details	vapor or sublimation pressure [kPa]
336.45 K	0.2527 ± 0.078
345 K	0.4838 ± 0.079
355.15 K	0.9002 ± 0.08
369.25 K	1.69 ± 0.21
374.45 K	2.13 ± 0.21
378.95 K	2.66 ± 0.22
384.45 K	3.57 ± 0.22
388.1 K	4.4 ± 0.22
391.45 K	5.33 ± 0.22
394.56 K	6.01 ± 0.23
397.25 K	7.14 ± 0.23
404.05 K	9.2 ± 0.23
408.25 K	11.34 ± 0.24

COC(N)=O [carbamic acid, methyl ester]
Details	vapor or sublimation pressure [kPa]
341.45 K	1.31 ± 0.21
350.9 K	1.91 ± 0.21
356.06 K	2.5 ± 0.22
360.75 K	3.55 ± 0.22
364.43 K	4.19 ± 0.22
367 K	4.48 ± 0.22
371.7 K	5.42 ± 0.22
373.85 K	6.23 ± 0.23
377.23 K	7.14 ± 0.23
384.9 K	9.83 ± 0.23
387.17 K	10.96 ± 0.24
390.5 K	12.39 ± 0.24
393.75 K	13.99 ± 0.24

CCCCCCCCCC [decane]
Details	vapor or sublimation pressure [kPa]
299.25 K	0.1732 ± 0.078
306.95 K	0.3091 ± 0.078
309.15 K	0.4116 ± 0.079
316.26 K	0.6545 ± 0.079
326.1 K	1.04 ± 0.21
340.05 K	1.95 ± 0.21
347.9 K	2.97 ± 0.22
353.32 K	3.8 ± 0.22
358.67 K	4.82 ± 0.22
362.85 K	5.92 ± 0.23
365.13 K	6.96 ± 0.23
370.4 K	8.23 ± 0.23
377.13 K	10.48 ± 0.23
379.93 K	12 ± 0.24
382.83 K	13.25 ± 0.24

COC(=O)Nc1ccccc1 [methyl N-phenylcarbamate]
Details	vapor or sublimation pressure
372.5 K	0.2093 ± 0.078 kPa
374.46 K	0.2248 ± 0.078 kPa
376.9 K	0.254 ± 0.078 kPa
379.05 K	0.308 ± 0.078 kPa
380.65 K	0.3343 ± 0.078 kPa
383.31 K	0.3891 ± 0.079 kPa
385.85 K	0.4487 ± 0.079 kPa
387.85 K	0.4996 ± 0.079 kPa
390.35 K	0.5609 ± 0.079 kPa
391.76 K	0.5914 ± 0.079 kPa
394.05 K	0.651 ± 0.079 kPa
395.8 K	0.719 ± 0.08 kPa
397.05 K	0.7885 ± 0.08 kPa and 0.7897 ± 0.08 kPa
399.63 K	0.9364 ± 0.08 kPa
399.83 K	0.9418 ± 0.08 kPa
402.15 K	1.06 ± 0.21 kPa
409.85 K	1.29 ± 0.21 kPa
412.9 K	1.54 ± 0.21 kPa
415.9 K	1.97 ± 0.21 kPa
418.45 K	2.13 ± 0.21 kPa

O [water]
Details	vapor or sublimation pressure [kPa]
280.2 K	1.29 ± 0.21
282.23 K	1.34 ± 0.21
287.9 K	1.82 ± 0.21
292.36 K	2.13 ± 0.22
296.13 K	2.78 ± 0.22
300.7 K	3.47 ± 0.22
304.8 K	4.54 ± 0.22
306.67 K	4.82 ± 0.22
309.65 K	5.9 ± 0.23
312.07 K	6.75 ± 0.23
314.95 K	7.78 ± 0.23
316.65 K	8.45 ± 0.25
317.9 K	9.45 ± 0.25
320.04 K	10.62 ± 0.24
322.75 K	11.78 ± 0.24
